Reference: PubChem BioAssay (NCI)
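In this assay, cells in 96-well plates receive the compound at five concentrations for 48 hours. Endpoints are linearly interpolated between the surrounding concentrations. GI50 is the concentration that inhibits growth by half. TGI denotes the concentration required for complete inhibition of growth.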

How the values were obtained:
Experiment in all cases: inhibition of tumour cell growth, NCI panel, 48 h
ACHN renal = tested on: ACHN renal
HT29 colon = tested on: HT29 colon
MDA-MB-435 = tested on: MDA-MB-435
NCI-H226 lung = tested on: NCI-H226 lung
RPMI-8226 leukemia = tested on: RPMI-8226 leukemia
SF-268 CNS = tested on: SF-268 CNS
SK-MEL-5 melanoma = tested on: SK-MEL-5 melanoma
SNB-19 CNS = tested on: SNB-19 CNS
T-47D breast = tested on: T-47D breast
UACC-257 melanoma = tested on: UACC-257 melanoma

SMILES	TGI (ACHN renal) [µM]	TGI (HT29 colon) [µM]	TGI (MDA-MB-435) [µM]	TGI (NCI-H226 lung) [µM]	TGI (RPMI-8226 leukemia) [µM]	TGI (SF-268 CNS) [µM]	TGI (SK-MEL-5 melanoma) [µM]	TGI (SNB-19 CNS) [µM]	TGI (T-47D breast) [µM]	TGI (UACC-257 melanoma) [µM]	GI50 (ACHN renal) [µM]	GI50 (HT29 colon) [µM]	GI50 (MDA-MB-435) [µM]	GI50 (NCI-H226 lung) [µM]	GI50 (RPMI-8226 leukemia) [µM]	GI50 (SF-268 CNS) [µM]	GI50 (SK-MEL-5 melanoma) [µM]	GI50 (SNB-19 CNS) [µM]	GI50 (T-47D breast) [µM]	GI50 (UACC-257 melanoma) [µM]
CCC1(OC(=O)CN2CCN(CCO)CC2)C(=O)OCc2c1cc1n(c2=O)Cc2cc3ccccc3nc2-1 (stereo unspecified)	1.52	8.85	4.38	2.2	5.28	13.2	1.15	28.6	4.92	8.05										
COc1ccc(/C=C2\CN(C(=O)CCN3CCC(=NO)CC3)C/C(=C\c3ccc(OC)cc3)C2=O)cc1	4.05	4.45	3.49	7.54	3.79		3.29	7.55	8.91	7.57	1.95	2.04	1.76	2.51	0.648	2.84	1.82	2.58	2.57	2.65
COc1ccccc1/C=C1\Sc2scc(-c3cccc([N+](=O)[O-])c3)[n+]2C1=O	9.93	9.97	18.2	33.5	9.28	18	8.86	25.8	33.1	19.8										
CSC(SC)=C1C(=O)NN=C1C	> 100	> 100	> 100	> 100	> 100	> 100	> 100	> 100	> 100	> 100										
COCCOCN(C(=O)C1=CCC2(CC1)OCCO2)c1ccccc1I	> 50	> 50	> 50	> 50	> 50		> 50	> 50	> 50	> 50										
CCOc1ccc2ccccc2c1NC1=NCCO1	> 100	> 100	> 100	85.4	59.4	> 100	> 100	> 100	> 100	> 100										
S=C(NNC1=NCCCN1)Nc1ccccc1	> 100	> 100	> 100	> 100	79	> 100	> 100	> 100	> 100	> 100										
CCOC(=O)C1(Cc2ccccc2)Cc2cc3c(cc2C1)CCC3	> 100	46.2	> 100	76.8	51.7	> 100		> 100	> 100	> 100										
CSCCC(NCc1c(O)ccc2ccc(=O)oc12)C(=O)O (stereo unspecified)	> 100	> 100	> 100	> 100	> 100	> 100	> 100	> 100	> 100	> 100										
CC(CC(=O)CO[C@H]1[C@H](O)[C@@H](O)[C@@H](O)[C@@H]2NC(=O)c3c(cc4c(c3O)OCO4)[C@H]21)OC1OC(CO)C(O)C(O)C1O (stereo partly specified)	2.6	2.32	4.5	3.54	2.07	3.81	1.48	7.89	0.894	6.19										
O=C1/C(=C\c2ccc([N+](=O)[O-])cc2)Sc2scc(-c3ccc(O)c(O)c3)[n+]21	47.5	15.7	21.9	> 100	15.2	21	13.4	74	54.6	22.6										
Cc1nc2c(o1)C(=O)c1ccccc1C2=NC1CCCCC1N (stereo unspecified)	2	5.33	0.302	3.75	4.2	3.82	0.252	2.1	1.86	0.321										
COc1cc2cc(Oc3ccc(NC(=O)Nc4ccc(F)c(C(F)(F)F)c4)cc3)c(C)nc2cc1OCCN1CCCCC1	3.01		3.14				3.09	3.29			1.65		1.74				1.7	1.76		
O=C1NCC2(CCNCC2)N1c1ccccc1	> 100	> 100	> 100	> 100	> 100	> 100	> 100	> 100	> 100	> 100										
O=C1C(C(O)(C(F)(F)Cl)C(F)(F)Cl)CCC1C(O)(C(F)(F)Cl)C(F)(F)Cl (stereo unspecified)	> 10	> 10	> 10	9.46	> 10	> 10	> 10	> 10	> 10	> 10										
Cc1ccc(-c2sc(-c3ccc(C)cc3)c3c2C2CCC3C2)cc1	> 50	> 50	> 50	> 50	> 50	> 50	> 50	> 50	> 50	> 50										
CC(=O)OCCC1c2ccccc2-n2nc(-c3ccccc3)c(O)c21 (stereo unspecified)	45.1	42.4	32.3	64.4	33.7	90.6	33	32.2		32.5										
CCOc1ccc(N2C(=O)C3c4[nH]c5ccccc5c4C4CCC(C(C)(C)C)CC4C3C2=O)cc1 (stereo unspecified)	> 100	> 100		> 100	> 100	> 100	> 100	> 100		> 100										
CCOC(=O)N1CCN(Cc2cc(=O)n3cc(C)ccc3n2)CC1	> 100	> 100	> 100	> 100	> 100	> 100		> 100		> 100										
O=C(O)CCC(NC(=O)c1ccc(Nc2nc3ccccc3nc2C(=O)O)cc1)C(=O)O (stereo unspecified)	> 100	> 100	> 100		> 100	> 100	> 100	> 100	> 100	> 100										
N=C(/C=C/c1ccc(-c2cn3cc(/C=C/C(=N)N4CCCC4)ccc3n2)cc1)N1CCCC1	> 100		> 100	> 100	> 100	> 100	> 100	> 100	> 100	> 100										
CC(O)c1c2c(cc3c1CC1(C3)Cc3cc4c(c(C(C)O)c3C1)CCC4)CCC2 (stereo unspecified)	31.4	28.3	31.9	34	38.5		25.6		53.7	31.7										
Cc1nc(-c2ccccc2)c(C)n2c1nc1ccccc12		> 100	59.5	> 100	40.6	98.7		> 100	45.3	> 100										

SMILES	TGI (ACHN renal) [µM]	TGI (HT29 colon) [µM]	TGI (MDA-MB-435) [µM]	TGI (NCI-H226 lung) [µM]	TGI (RPMI-8226 leukemia) [µM]	TGI (SF-268 CNS) [µM]	TGI (SK-MEL-5 melanoma) [µM]	TGI (SNB-19 CNS) [µM]	TGI (T-47D breast) [µM]	TGI (UACC-257 melanoma) [µM]	GI50 (ACHN renal) [µM]	GI50 (HT29 colon) [µM]	GI50 (MDA-MB-435) [µM]	GI50 (NCI-H226 lung) [µM]	GI50 (RPMI-8226 leukemia) [µM]	GI50 (SF-268 CNS) [µM]	GI50 (SK-MEL-5 melanoma) [µM]	GI50 (SNB-19 CNS) [µM]	GI50 (T-47D breast) [µM]	GI50 (UACC-257 melanoma) [µM]
CC(C)Nc1[nH]c(C(=O)c2ccccc2)c(N)c1C(=S)Nc1ccccc1	> 100	91.3	99.1	> 100		> 100	74.1	> 100	> 100	46.7										
CCOC(=O)c1ncoc1[C@H]1COC(C)(C)O1	> 100	> 100		> 100	> 100	> 100	> 100	> 100		> 100										
O=C1C=C(N2CCCC2)C=C(N2CCCC2)C1	> 100	> 100		> 100	> 100	> 100	> 100	> 100		> 100										
CCN(CC)CCNC(=O)c1ccc([N+](=O)[O-])cc1OC	> 100	> 100		> 100		> 100	> 100	> 100		> 100										
O=S(=O)(c1cc(Cl)ccc1Cl)N1CCN(c2ccc(Cl)c(Cl)c2)CC1	95.9	> 100		54.1	> 100	85.9	51.5	32.1	> 100	92.7										
COC(=O)c1ccc2c(c1)CC1(C2)Cc2cc3c(c(C(=O)OC)c2C1)CCCC3 (stereo unspecified)	> 100	> 100	> 100	> 100	> 100	> 100	42		> 100	> 100										
Cc1cc(C)c(S(=O)(=O)N[C@@H](/C=C(\Br)CO)C(C)C)c(C)c1	> 100	> 100	34.1		54.5	> 100	30.5	> 100	68.4	54.6										
CC1=C2C(=O)O[C@@H](c3ccoc3)[C@]2(C)CCC1=O	> 100		> 100	> 100	> 100		> 100	> 100	> 100	> 100										
CC(=O)Oc1ccccc1[C@H]1CC(=O)C[C@H](c2ccccc2OC(C)=O)C12C(=O)c1ccccc1C2=O		> 100	31.6	74	> 100		48.7	> 100	> 100											
Cc1cc(S(N)(=O)=O)c(SCc2nc(N)nc(N(C)C)n2)cc1Cl	> 10	> 10		> 10	> 10	> 10	> 10	> 10	> 10	> 10										
O=C1Nc2cccc3ncn(c23)C2=C1CCCC2	> 100				> 100	> 100	> 100	> 100		> 100										
Cc1c(C(=O)CSc2nc3ccc([N+](=O)[O-])cc3[nH]2)c(=O)n(-c2ccccc2)n1C	> 100	> 100		> 100	> 100	> 100	> 100	> 100		> 100										
CC12CC3CC/C(=N\O)C(C1)C3(N1CCOCC1)C/C2=N/O (stereo unspecified)	> 100	> 100	> 100	> 100		> 100	> 100	> 100	> 100	> 100										
CC(C)C1CC=NN1C(=O)OC(C)(C)C (stereo unspecified)	> 100	> 100	> 100	> 100	> 100	> 100	> 100		> 100	> 100										
CC[C@@H]1CN2CCC1C[C@@H]2C(O)c1ccnc2ccc(OCCN3CCN(CCOc4ccc5nccc(C(O)[C@@H]6C[C@@H]7CCN6C[C@@H]7CC)c5c4)CC3)cc12 (stereo partly specified)	28.8	30.2	28		8.45	41.2	32	27.9	42.1	32.1										
O=C1CC2CC=C[C@H]3c4cc5c(cc4C(=O)N1C23)OCO5 (stereo partly specified)	> 50	> 50		> 50	> 50	> 50		> 50		> 50										
COc1cc(C2CC(c3cccc(Nc4ccncc4)c3)=NN2c2cc(Cl)cc(Cl)c2)cc(OC)c1OC (stereo unspecified)	3.03		3.15			3.21	3.24	3.02			1.66		1.61			1.61	1.8	1.61		
CCOC(=O)c1cccc(NC(=O)CBr)c1	3.09	3.32	2.51	2.8	3.74		2.76	16.6		3.86										
COc1ccc(NC(=O)CC(=O)n2nc(C)c(N=Nc3ccc(C)c(C)c3)c2C)cc1	> 100	> 100	> 100	> 100	> 100	> 100	> 100	> 100	> 100											
ClC(Cl)(Cl)C1CCOC1n1nc2ccccc2n1 (stereo unspecified)		> 100	> 100	> 100		> 100	> 100		> 100	> 100										
Cc1cc2nc(N3C(=O)/C(=C/c4cccc([N+](=O)[O-])c4)N=C3c3ccccc3)sc2cc1C	> 100	75.9	36.5		48.1	> 100	> 100	> 100	> 100	> 100										
O=C(O)C(CS)NCc1c2ccccc2[n+]([O-])c2ccccc12 (stereo unspecified)	> 100	> 100		> 100	92.4	91.3	> 100	> 100		> 100										
